Reference: US20230322805A1, “NOVEL PYRIMIDODIAZEPINE DERIVATIVES OR USES THEREOF” (SPARK BIOPHARMA, INC., priority 2020, published 2023)

What was measured:
[1] = molecular target: T1, PDIA3 (PDI reductase activity) (Homo sapiens, UniProt P30101); assay: PEG maleimide modification assay of PDI oxidation state; type: cell-based; conditions: BiFC-tau HEK293 cells, 200 nM TG and 40 μM SB1617 for 3.5 hours, versus thapsigargin alone
T1 construct: endogenous in cells; host or cells: HEK293 BiFC-tau cells (TS-FITGE, CETSA, PEG-maleimide assay)
T1 sequence (P30101 25-505): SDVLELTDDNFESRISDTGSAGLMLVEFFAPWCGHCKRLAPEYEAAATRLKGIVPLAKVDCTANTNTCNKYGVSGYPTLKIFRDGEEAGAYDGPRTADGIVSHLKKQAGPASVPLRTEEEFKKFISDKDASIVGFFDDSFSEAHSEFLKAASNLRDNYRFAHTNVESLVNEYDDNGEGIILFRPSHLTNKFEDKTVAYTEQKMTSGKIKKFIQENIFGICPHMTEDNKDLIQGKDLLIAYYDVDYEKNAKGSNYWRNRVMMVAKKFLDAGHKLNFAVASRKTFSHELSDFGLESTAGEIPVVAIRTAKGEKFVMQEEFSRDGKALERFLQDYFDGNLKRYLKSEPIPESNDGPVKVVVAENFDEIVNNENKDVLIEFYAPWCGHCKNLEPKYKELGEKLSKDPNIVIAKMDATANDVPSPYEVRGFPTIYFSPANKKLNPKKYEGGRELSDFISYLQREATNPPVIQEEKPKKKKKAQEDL
Experimental: Cysteine modification analysis using PEG maleimide was performed according to the paper (P. Kranz, F. Neumann, A. Wolf, F. Classen, M. Pompsch, T. Ocklenburg, J. Baumann, K. Janke, M. Baumann, K. Goepelt, H. Riffkin, E. Metzen, U. Brockmeier, PDI is an essential redox-sensitive activator of PERK during the unfolded protein response (UPR). Cell Death Dis. 8, e2986 (2017)).
After compound treatment, BiFC-tau HEK293 cells were washed with cold PBS, incubated with 20 mM N-ethylmaleimide (NEM, Sigma Aldrich) in PBS for 20 minutes on ice to alkylate the reduced form of cysteine, and after washing with cold PBS, the cells were lysed in RIPA buffer. For whole cell analysis, the lysate was centrifuged at 200 g for 5 min at 4° C. to remove insoluble material. Protein concentration in the supernatant was analyzed by Pierce BCA Protein Assay Kit. Equal amounts of each lysate were treated with 12 mM tris(2-carboxyethyl)phosphine (TCEP, Sigma Aldrich) for 20 minutes at room temperature to reduce the form of oxidized PDI. Lysates were incubated with 15 mM methoxy polyethylene glycol 5000 maleimide (mPEG-mal5000, Sigma Aldrich) for 1 hour at room temperature. […]
3-2. […] Maleimides with two different molecular weights allow the bands of oxidized and reduced forms of PDI to be readily separated by electrophoresis.

PDIA3 = molecular target: T2, PDIA3 (Homo sapiens, UniProt P30101); assay: CETSA and pull-down assay with probe SB1624; type: binding; design: endogenous in cells; host or cells: HEK293 BiFC-tau cells (TS-FITGE, CETSA, PEG-maleimide assay); SH-SY5Y cells (pull-down with probe SB1624); conditions: CETSA 10 μM in HEK293 BiFC-tau cells; pull-down 5 μM SB1624 with or without 40 μM SB1617 in SH-SY5Y cells
T2 sequence (P30101 25-505): T1 sequence (P30101 25-505)
Experimental: HEK293 BiFC-tau cells were treated with DMSO (0.1%) and a compound according to the present invention (10 μM) in the presence of thapsigargin (200 nM) for 3 hours. The cell suspension was heated at the indicated temperature range for 3 minutes and then at 25° C. for 3 minutes. The heated cells were washed with PBS and resuspended in Lysis Buffer A. For cell lysis, cell suspensions were freeze-thawed in liquid nitrogen three times. The cell lysate was washed by centrifugation at 20000 g, 4° C. for 20 minutes. Equal volumes of washed cell lysate were combined with SDS buffer and subjected to immunoblotting.
SH-SY5Y cells were seeded in 6-well plates and then treated with 1 μM thapsigargin and 5 μM SB1624 (probe compound) for 2.5 hours with or without 40 μM SB1617. Cells were exposed to 356 nm UV irradiation for 30 min on ice. After washing with cold PBS, cells were lysed in RIPA buffer and removed by centrifugation at […] for 15 minutes at 4° C. The protein concentration of the supernatant was determined by Pierce BCA Protein Assay Kit and the protein concentration was adjusted to 1 mg/mL. […] Proteins were eluted by boiling with 3×SDS sample buffer and analyzed by SDS-PAGE and Western blot. […]

Q: `CN(Cc1ccc(Cl)cc1)c1ncnc2c1[C@@H]1OC[C@H](CN2)N1S(=O)(=O)c1ccc([N+](=O)[O-])cc1` [Compound 117] was tested. Which “oxidation state of PDI” value [1] did it give?
A: significantly converted from the reduced form to the oxidized form

Q: And the “specific binding (CETSA, pull-down)” value (PDIA3)?
A: specifically binds
